In ChEMBL document CHEMBL1151415, “Plant anticancer agents. XXIV. Alkaloid constituents of Simaba multiflora” (1983):
In brackets after ≈: the same amount, converted by molar mass. Activity calls are given as the source filed them. No cut-off for these calls is given here.

Test system: KB
Test: Cytotoxicity against human KB cells
Type: functional
Settings: for EC50: read-out: ED50 (the source's name)

SMILES	Activity	EC50 [µg/mL]
O=c1cc2c3ccccc3n3c(=O)ccc([nH]1)c23	inactive	–
COn1c(=O)cc2c3cc(O)ccc3n3c(=O)ccc1c23	inactive	–
COn1c(=O)cc2c3ccccc3n3c(=O)ccc1c23	inactive	–
O=c1ccc2nccc3c4cc(O)ccc4n1c23	–	2.2 (≈ 9.31 µM)
COc1ccc2c(c1)c1ccnc3ccc(=O)n2c31	–	2.1 (≈ 8.39 µM)
